Patent US11802120B2, “Fused cyclic urea derivatives as CRHR2 antagonist” (RaQualia Pharma Inc., priority 2018, dated 2023)
pIC50: −log10 of the molar value.

molecular target: T1, human CRHR2-alpha (Homo sapiens, UniProt Q13324); experiment: cAMP functional assay for human CRHR2 (LANCE Ultra cAMP, TR-FRET); type: cell-based; conditions: CHO-K1 cells expressing human CRHR2-alpha, agonist human urocortin2 at EC80, cAMP; read-out: IC50 against CRHR2
T1 sequence (Q13324 1-411): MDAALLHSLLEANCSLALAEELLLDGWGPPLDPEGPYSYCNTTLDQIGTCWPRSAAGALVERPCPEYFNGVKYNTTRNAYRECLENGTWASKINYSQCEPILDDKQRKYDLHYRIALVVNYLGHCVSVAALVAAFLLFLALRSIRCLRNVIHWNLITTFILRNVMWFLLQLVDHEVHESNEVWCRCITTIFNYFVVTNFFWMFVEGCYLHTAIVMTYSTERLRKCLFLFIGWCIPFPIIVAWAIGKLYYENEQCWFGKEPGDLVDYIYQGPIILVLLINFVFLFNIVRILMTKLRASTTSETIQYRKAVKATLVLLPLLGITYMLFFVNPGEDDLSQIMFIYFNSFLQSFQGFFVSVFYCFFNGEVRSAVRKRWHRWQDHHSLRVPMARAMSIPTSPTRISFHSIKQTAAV
Outline: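 Antagonism measured in CHO-K1 cells stably expressing the receptor, serum-starved 7 h then cryopreserved. Thawed cells in HBSS buffer with 0.1% BSA, 0.5 mM IBMX, 5 mM Hepes pH 7.4 were preincubated with compound 30 min at 25° C, then stimulated 30 min with EC80 agonist: urocortin2 for CRHR2, CRF for CRHR1.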

Row | SMILES | pIC50
1 | CCNC(=O)c1ccc(-n2c(=O)n(C[C@H]3CC[C@H](NC(=O)c4cc(Cl)cnc4C)CC3)c3ccccc32)cn1 [Example 182, 5-(3-(((1r,4r)-4-(5-chloro-2-methylnicotinamido)cyclo-hexyl)methyl)-2-oxo-2,3-dihydro-1H-benzo[d]imidazol-1-yl)-N-ethylpicolinamide] | > 6.52
2 | Cc1ncc(Cl)cc1C(=O)N[C@H]1CC[C@H](Cn2c(=O)n(-c3ccc(C(=O)Nc4cc[nH]n4)nc3)c3ccccc32)CC1 [Example 183, 5-(3-(((1r,4r)-4-(5-chloro-2-methylnicotinamido)cyclo-hexyl)methyl)-2-oxo-2,3-dihydro-1H-benzo[d]imidazol-1-yl)-N-(1H-pyrazol-3-yl) picolinamide] | > 6.52
3 | Cc1ncc(Cl)cc1C(=O)N[C@H]1CC[C@H](Cn2c(=O)n(C3Cc4ccccc4C3)c3ccccc32)CC1 [Example 184, 5-chloro-N-((1r,4r)-4-((3-(2,3-dihydro-1H-inden-2-yl)-2-oxo-2,3-dihydro-1H-benzo [d]imidazol-1-yl)methyl)cyclohexyl)-2-methyl-nicotinamide] | > 6.52
4 | Cc1ncc(Cl)cc1C(=O)N[C@H]1CC[C@H](Cn2c(=O)n(-c3ccc4nn(C)c(C)c4c3)c3ccccc32)CC1 [Example 185, 5-chloro-N-((1r,4r)-4-((3-(2,3-dimethyl-2H-indazol-5-yl)-2-oxo-2,3-dihydro-1H-benzo[d]imidazol-1-yl)methyl)cyclohexyl)-2-methylnicotinamide] | > 6.52
5 | Cc1ncc(Cl)cc1C(=O)N[C@H]1CC[C@H](Cn2c(=O)n(-c3ccc4nccn4c3)c3ccccc32)CC1 [Example 186, 5-chloro-N-((1r,4r)-4-((3-(imidazo[1,2-a]pyridin-6-yl)-2-oxo-2,3-dihydro-1H-benzo [d]imidazol-1-yl)methyl)cyclohexyl)-2-methylnico-tinamide] | > 6.52
6 | Cc1ncc(Cl)cc1C(=O)N[C@H]1CC[C@H](Cn2c(=O)n(-c3cccc4ncncc34)c3ccccc32)CC1 [Example 187, 5-chloro-2-methyl-N-((1r,4r)-4-((2-oxo-3-(quinazolin-5-yl)-2,3-dihydro-1H-benzo[d]imidazol-1-yl)methyl)cyclo-hexyl)nicotinamide] | > 6.52
7 | CC(=O)N1Cc2ccc(-n3c(=O)n(C[C@H]4CC[C@H](NC(=O)c5cc(Cl)cnc5C)CC4)c4ccccc43)cc2C1 [Example 188, N-((1r,4r)-4-((3-(2-acetylisoindolin-5-yl)-2-oxo-2,3-dihydro-1H-benzo[d]imidazol-1-yl)methyl)cyclohexyl)-5-chloro-2-methylnicotinamide] | > 6.52
8 | Cc1ncc(Cl)cc1C(=O)N[C@H]1CC[C@H](Cn2c(=O)n(-c3ccc4c(c3)CCC4)c3ncccc32)CC1 [Example 189, 5-chloro-N-((1r,4r)-4-((3-(2,3-dihydro-1H-inden-5-yl)-2-oxo-2,3-dihydro-1H-imidazo[4,5-b]pyridin-1-yl)methyl)cyclohexyl)-2-methylnicotinamide] | > 6.52
9 | COc1ccc(-n2c(=O)n(C[C@H]3CC[C@H](NC(=O)c4cc(Cl)cnc4C)CC3)c3cccnc32)cc1 [Example 190, 5-chloro-N-((1r,4r)-4-((3-(4-methoxyphenyl)-2-oxo-2,3-dihydro-1H-imidazo [4,5-b]pyridin-1-yl)methyl)cyclohexyl)-2-methylnico-tinamide] | > 6.52
10 | Cc1ncc(Cl)cc1C(=O)N[C@H]1CC[C@H](Cn2c(=O)n(-c3ccc4c(C)nn(C)c4c3)c3ccccc32)CC1 [Example 191, 5-chloro-N-((1r,4r)-4-((3-(1,3-dimethyl-1H-indazol-6-yl)-2-oxo-2,3-dihydro-1H-benzo[d]imidazol-1-yl)methyl)cyclohexyl)-2-methylnicotinamide] | > 6.52
11 | CNC(=O)c1ccc(-n2c(=O)n(C[C@H]3CC[C@H](NC(=O)c4cc(Cl)cnc4C)CC3)c3cccc(C)c32)cn1 [Example 192, 5-(3-(((1r,4r)-4-(5-chloro-2-methylnicotinamido)cyclo-hexyl)methyl)-7-methyl-2-oxo-2,3-dihydro-1H-benzo [d]imidazol-1-yl)-N-methylpicolinamide] | > 6.52
12 | CNC(=O)c1ccc(-n2c(=O)n(C[C@H]3CC[C@H](NC(=O)c4cc(Cl)cnc4C)CC3)c3cc(OC)ccc32)cn1 [Example 194, 5-(3-(((1r,4r)-4-(5-chloro-2-methylnicotinamido)cyclohexyl)methyl)-5-methoxy-2-oxo-2,3-dihydro-1H-benzo[d]imidazol-1-yl)-N-methylpicolinamide] | > 6.52
13 | Cc1ncc(Cl)cc1C(=O)N[C@H]1CC[C@H](Cn2c(=O)n(-c3ccc4c(c3)oc(=O)n4CC3CC3)c3ccccc32)CC1 [Example 195, 5-chloro-N-((1r,4r)-4-((3-(3-(cyclopropylmethyl)-2-oxo-2,3-dihydrobenzo[d]oxazol-6-yl)-2-oxo-2,3-dihydro-1H-benzo[d]imidazol-1-yl)methyl)cyclohexyl)-2-methylnicotinamide] | > 6.52
14 | Cc1ncc(Cl)cc1C(=O)N[C@H]1CC[C@H](Cn2c(=O)n(-c3cnc4c(c3)OCC(=O)N4C)c3ccccc32)CC1 [Example 196, 5-chloro-2-methyl-N-((1r,4r)-4-((3-(4-methyl-3-oxo-3,4-dihydro-2H-pyrido[3,2-b][1,4]oxazin-7-yl)-2-oxo-2,3-dihydro-1H-benzo[d]imidazol-1-yl)methyl)cyclohexyl) nicotinamide] | > 6.52
15 | Cc1ncc(Cl)cc1C(=O)N[C@H]1CC[C@H](Cn2c(=O)n(-c3ccc4c(N)n[nH]c4c3)c3ccccc32)CC1 [Example 197, N-((1r,4r)-4-((3-(3-amino-1H-indazol-6-yl)-2-oxo-2,3-dihydro-1H-benzo[d]imidazol-1-yl)methyl)cyclohexyl)-5-chloro-2-methylnicotinamide] | > 6.52

Further lines, results first:

Row | pIC50 | SMILES
16 | > 6.52 | Cc1ncc(Cl)cc1C(=O)N[C@H]1CC[C@H](Cn2c(=O)n(-c3ccc4c(N)noc4c3)c3ccccc32)CC1 [Example 198, N-((1r,4r)-4-((3-(3-aminobenzo[d]isoxazol-6-yl)-2-oxo-2,3-dihydro-1H-benzo[d]imidazol-1-yl)methyl)cyclohexyl)-5-chloro-2-methylnicotinamide]
17 | > 6.52 | CNC(=O)c1cc(C)c(-n2c(=O)n(C[C@H]3CC[C@H](NC(=O)c4cc(Cl)cnc4C)CC3)c3ccccc32)cn1 [Example 199, 5-(3-(((1r,4r)-4-(5-chloro-2-methylnicotinamido)cyclo-hexyl)methyl)-2-oxo-2,3-dihydro-1H-benzo[d]imidazol-1-yl)-N,4-dimethylpicolinamide]
18 | > 6.52 | Cc1ncc(Cl)cc1C(=O)N[C@H]1CC[C@H](Cn2c(=O)n(-c3ccc4ncsc4c3)c3ncccc32)CC1 [Example 200, N-((1r,4r)-4-((3-(benzo[d]thiazol-6-yl)-2-oxo-2,3-dihydro-1H-imidazo[4,5-b]pyridin-1-yl)methyl)cyclohexyl)-5-chloro-2-methylnicotinamide]
19 | > 6.52 | Cc1ncc(Cl)cc1C(=O)N[C@H]1CC[C@H](Cn2c(=O)n(-c3ccc(-c4cccnc4)nc3)c3ccccc32)CC1 [Example 201, N-((1r,4r)-4-((3-([2,3′-bipyridin]-5-yl)-2-oxo-2,3-dihydro-1H-benzo[d]imidazol-1-yl)methyl)cyclohexyl)-5-chloro-2-methylnicotinamide]
20 | > 6.52 | Cc1ncc(Cl)cc1C(=O)N[C@H]1CC[C@H](Cn2c(=O)n(-c3ccc(-c4cnco4)nc3)c3ccccc32)CC1 [Example 202, 5-chloro-2-methyl-N-((1r,4r)-4-((3-(6-(oxazol-5-yl)pyridin-3-yl)-2-oxo-2,3-dihydro-1H-benzo[d]imidazol-1-yl)methyl)cyclo-hexyl)nicotinamide]
21 | > 6.52 | Cc1ncc(Cl)cc1C(=O)N[C@H]1CC[C@H](Cn2c(=O)n(-c3ccc(-c4cn[nH]c4)nc3)c3ccccc32)CC1 [Example 203, N-((1r,4r)-4-((3-(6-(1H-pyrazol-4-yl)pyridin-3-yl)-2-oxo-2,3-dihydro-1H-benzo[d]imidazol-1-yl)methyl)cyclohexyl)-5-chloro-2-methylnicotinamide]
22 | > 6.52 | Cc1ncc(Cl)cc1C(=O)N[C@H]1CC[C@H](Cn2c(=O)n(-c3ccc(Br)cc3C#N)c3ccccc32)CC1 [Example 204, N-((1r,4r)-4-((3-(4-bromo-2-cyanophenyl)-2-oxo-2,3-dihydro-1H-benzo[d]imidazol-1-yl)methyl)cyclo-hexyl)-5-chloro-2-methylnicotinamide]
23 | > 6.52 | Cc1ncc(Cl)cc1C(=O)N[C@H]1CC[C@H](Cn2c(=O)n(-c3ccc4c(C)n[nH]c4c3)c3ccccc32)CC1 [Example 205, 5-chloro-2-methyl-N-((1r,4r)-4-((3-(3-methyl-1H-indazol-6-yl)-2-oxo-2,3-dihydro-1H-benzo[d]imidazol-1-yl)methyl)cyclohexyl)nicotinamide]
24 | > 6.52 | Cc1ncc(Cl)cc1C(=O)N[C@H]1CC[C@H](Cn2c(=O)n(-c3ccc4c(c3)ncn4C)c3ccccc32)CC1 [Example 206, 5-chloro-2-methyl-N-((1r,4r)-4-((1′-methyl-2-oxo-1′H-[1,5′-bibenzo[d]imidazol]-3(2H)-yl)methyl)cyclohexyl)nico-tinamide]
25 | > 6.52 | Cc1ncc(Cl)cc1C(=O)N[C@H]1CC[C@H](Cn2c(=O)n(-c3ccc4c(Cl)nn(C)c4c3)c3ccccc32)CC1 [Example 208, 5-chloro-N-((1r,4r)-4-((3-(3-chloro-1-methyl-1H-indazol-6-yl)-2-oxo-2,3-dihydro-1H-benzo[d]imidazol-1-yl)methyl)cyclohexyl)-2-methylnico-tinamide]
